Measurements: PubChem BioAssay AID248 (DTP/NCI, 2004)
“And” between values parts separate entries of the source, which are not always exact repeats. Identical values can stand only once. Inconclusive results and toxic doses are left out.

Test system: L1210 leukemia ip in BDF1 mice, survival T/C
Assay: NCI In Vivo Anticancer Drug Screen. Data for tumor model L1210 Leukemia (intraperitoneal) in B6D2F1 (BDF1) mice
Details: endpoint: mean survival time, higher = longer survival
Outline: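 Antitumor effect is assessed in tumor-bearing animals. Survival in the compound arm is compared with a vehicle-dosed control arm and expressed as their quotient.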

[1] = dose: 100.0 mg/kg/injection, schedule: Q01DX001 (ip), vehicle: saline
[2] = dose: 200.0 mg/kg/injection, schedule: Q01DX001 (ip), vehicle: saline
[3] = dose: 400.0 mg/kg/injection, schedule: Q01DX001 (ip), vehicle: saline
[4] = dose: 50.0 mg/kg/injection, schedule: Q01DX001 (ip), vehicle: saline
[5] = dose: 100.0 mg/kg/injection, schedule: Q01DX009 (ip), vehicle: Klucel (hydroxypropylcellulose) (HPC)
[6] = dose: 400.0 mg/kg/injection, schedule: Q01DX001 (ip), vehicle: carboxymethylcellulose (CMC)

For `O=C(O)CCC(=O)c1ccc2ccc3cccc4ccc1c2c34`, the T/C [1] was 98 % of control, the T/C [2] was 102 % of control and the T/C [3] was 103 % of control.
For `O=C(c1ccc2cc(Cl)c(Cl)cc2c1)C(Cl)Cl`, the T/C (dose: 25.0 mg/kg/injection, schedule: Q04DX002 (ip), vehicle: Klucel (hydroxypropylcellulose) (HPC)) was 90 % of control, the T/C (dose: 50.0 mg/kg/injection, schedule: Q04DX002 (ip), vehicle: Klucel (hydroxypropylcellulose) (HPC)) was 108 % of control and the T/C (dose: 100.0 mg/kg/injection, schedule: Q04DX002 (ip), vehicle: Klucel (hydroxypropylcellulose) (HPC)) was 93 % of control and 98 % of control.
`O=C=Nc1cccc2c(N=C=O)cccc12` was tested, and the T/C (dose: 100.0 mg/kg/injection, schedule: Q01DX009 (ip), vehicle: saline with Tween-80) was 91 % of control.
In the case of `CN(C)S(=O)(=O)c1ccc(CCc2ccc(S(=O)(=O)N(C)C)cc2)cc1`, the T/C [4] is reported as 93 % of control, the T/C [1] is reported as 91 % of control and the T/C [2] is reported as 91 % of control. For the same molecule, the T/C [3] was 96 % of control.
With `Nc1ccc(C(F)(F)F)cc1[N+](=O)[O-]` the T/C (dose: 100.0 mg/kg/injection, schedule: Q04DX002 (ip), vehicle: saline) was 118 % of control, the T/C (dose: 200.0 mg/kg/injection, schedule: Q04DX002 (ip), vehicle: saline) was 103 % of control and the T/C (dose: 400.0 mg/kg/injection, schedule: Q04DX002 (ip), vehicle: saline) was 107 % of control.
With `C=CCOP(=O)(N1CC1C)N1CC1C` (centres undefined) the T/C (dose: 29.0 mg/kg/injection, schedule: Q01DX015 (ip), vehicle: saline) was 105 % of control, the T/C (dose: 44.0 mg/kg/injection, schedule: Q01DX015 (ip), vehicle: saline) was 120 % of control and the T/C (dose: 66.0 mg/kg/injection, schedule: Q01DX015 (ip), vehicle: saline) was 114 % of control. The T/C (dose: 89.0 mg/kg/injection, schedule: Q01DX001 (ip), vehicle: saline) was 108 % of control, the T/C [2] was 152 % of control and the T/C (dose: 300.0 mg/kg/injection, schedule: Q01DX001 (ip), vehicle: saline) was 115 % of control. The T/C [3] was 86 % of control.
For `OCCSC(SCCO)=C(SCCO)SCCO`, the T/C [5] was 105 % of control, the T/C (dose: 100.0 mg/kg/injection, schedule: Q04DX003 (ip), vehicle: Klucel (hydroxypropylcellulose) (HPC)) was 97 % of control and the T/C (dose: 200.0 mg/kg/injection, schedule: Q01DX009 (ip), vehicle: Klucel (hydroxypropylcellulose) (HPC)) was 102 % of control. For the same molecule, the T/C (dose: 200.0 mg/kg/injection, schedule: Q04DX003 (ip), vehicle: Klucel (hydroxypropylcellulose) (HPC)) was 92 % of control, the T/C (dose: 400.0 mg/kg/injection, schedule: Q01DX009 (ip), vehicle: Klucel (hydroxypropylcellulose) (HPC)) was 96 % of control and the T/C (dose: 400.0 mg/kg/injection, schedule: Q04DX003 (ip), vehicle: Klucel (hydroxypropylcellulose) (HPC)) was 94 % of control.
`CCOP(=O)(Nc1ccc2c(c1)Cc1c-2cc(Br)c(NC(C)=O)c1Br)OCC` was tested, and the T/C (dose: 50.0 mg/kg/injection, schedule: Q01DX001 (ip), vehicle: carboxymethylcellulose (CMC)) was 97 % of control, the T/C (dose: 100.0 mg/kg/injection, schedule: Q01DX001 (ip), vehicle: carboxymethylcellulose (CMC)) was 94 % of control and the T/C (dose: 200.0 mg/kg/injection, schedule: Q01DX001 (ip), vehicle: carboxymethylcellulose (CMC)) was 105 % of control. The T/C [6] was 100 % of control.
`CS(=O)(=O)Nc1ccc(Nc2c3ccccc3nc3ccccc23)cc1` was tested, and the T/C (dose: 10.0 mg/kg/injection, schedule: Q01DX009 (sc), vehicle: saline) was 108 % of control, the T/C (dose: 12.5 mg/kg/injection, schedule: Q01DX001 (ip), vehicle: saline) was 101 % of control and the T/C (dose: 20.0 mg/kg/injection, schedule: Q01DX009 (ip), vehicle: saline) was 161 % of control. For the same molecule, the T/C (dose: 20.0 mg/kg/injection, schedule: Q01DX009 (sc), vehicle: saline) was 116 % of control, the T/C (dose: 25.0 mg/kg/injection, schedule: Q01DX001 (ip), vehicle: saline) was 119 % of control and the T/C (dose: 40.0 mg/kg/injection, schedule: Q01DX009 (ip), vehicle: saline) was 107 % of control. For the same molecule, the T/C [4] was 104 % of control, the T/C (dose: 117.0 mg/kg/injection, schedule: Q01DX009 (ip), vehicle: carboxymethylcellulose (CMC)) was 97 % of control and the T/C (dose: 176.0 mg/kg/injection, schedule: Q01DX001 (ip), vehicle: carboxymethylcellulose (CMC)) was 151 % of control. For the same molecule, the T/C (dose: 176.0 mg/kg/injection, schedule: Q01DX009 (ip), vehicle: carboxymethylcellulose (CMC)) was 100 % of control, the T/C (dose: 240.0 mg/kg/injection, schedule: Q04DX003 (ip), vehicle: Klucel (hydroxypropylcellulose) (HPC)) was 156 % of control and the T/C (dose: 264.0 mg/kg/injection, schedule: Q01DX001 (ip), vehicle: carboxymethylcellulose (CMC)) was 161 % of control. The T/C (dose: 266.0 mg/kg/injection, schedule: Q01DX001 (ip), vehicle: carboxymethylcellulose (CMC)) was 158 % of control, the T/C [6] was 150 % of control and the T/C (dose: 600.0 mg/kg/injection, schedule: Q01DX001 (ip), vehicle: carboxymethylcellulose (CMC)) was 179 % of control and 253 % of control.
In the case of `O=C(O)CNc1cccnc1`, the T/C (dose: 25.0 mg/kg/injection, schedule: Q01DX009 (ip), vehicle: Klucel (hydroxypropylcellulose) (HPC)) is reported as 95 % of control, the T/C (dose: 50.0 mg/kg/injection, schedule: Q01DX009 (ip), vehicle: Klucel (hydroxypropylcellulose) (HPC)) is reported as 100 % of control and the T/C [5] is reported as 101 % of control.
